{"source": "patent US11369648B2", "about": "(priority 2018, dated 2022)", "key": {"influenza virus [1]": {"tested_on": "influenza virus", "assay": "Effect on body weight of influenza mice", "type": "in vivo, ICR female mice", "details": "fourth day after challenge, bacteria 10^9 CFU intragastrically daily from two weeks before challenge, ribavirin intraperitoneally from second day"}, "influenza virus [2]": {"tested_on": "influenza virus", "assay": "Effect on blood indexes (neutrophils, lymphocytes) of influenza mice", "design": "species or system ICR female mice", "details": "mouse, in vivo"}, "influenza virus [3]": {"tested_on": "influenza virus", "assay": "Effect on viral load in lungs of influenza mice (qPCR)", "type": "in vivo, ICR female mice"}, "influenza virus [4]": {"tested_on": "influenza virus", "design": "species or system ICR female mice", "details": "mouse, in vivo"}, "antiviral protein MxA": {"tested_on": "antiviral protein MxA", "type": "in vivo, ICR female mice", "details": "qPCR, GAPDH internal reference, 2^-ΔΔt, times that of the model group"}}, "note": "“Also recorded” adds a separate entry of the source."}
{"smiles": "NC(=O)c1ncn([C@@H]2O[C@H](CO)[C@@H](O)[C@H]2O)n1", "note": "[Treatment, ribavirin]", "values": [{"measurement": "body weight decrease compared with the control group (Control)", "setting": "influenza virus [1]", "result": "about 5%"}, {"measurement": "lymphocytes, change compared with the blank control group (Control)", "setting": "influenza virus [2]", "result": "without significant differences"}, {"measurement": "neutrophils, change compared with the blank control group (Control)", "setting": "influenza virus [2]", "result": "without significant differences"}, {"measurement": "reduction in viral load in the lungs (significance versus model group)", "setting": "influenza virus [3]; mouse, in vivo", "result": "has significance"}, {"measurement": "viral load in the lungs, relative to the model group", "setting": "influenza virus [3]; right lung, fifth day after challenge, qPCR, GAPDH internal reference, 2^-ΔΔt, % of that of the model group", "result": 38.03, "unit": "%"}, {"measurement": "lung histopathology (inflammation, infiltration of inflammatory cells)", "setting": "influenza virus [4]", "result": "mild infiltration of inflammatory cells; also recorded: relatively mild inflammation; also recorded: some moderate and mild inflammation"}, {"measurement": "expression quantity of MxA in the lungs, relative to the model group (Model)", "setting": "antiviral protein MxA", "result": 2.62, "unit": "times"}]}
